Data published in BindingDB's records for doi:10.1016/0028-3908(94)90059-0 (University of Alberta, 1994).
Several values for one entry are separate records, joined by “and”; a condition that tells them apart may be missing. Equal values may be shown once.

Columns and labels:
[1] = target: 5-hydroxytryptamine receptor 1B (Homo sapiens, UniProt P28222)
[2] = target: 5-hydroxytryptamine receptor 7 (Mus musculus, UniProt P32304)
[3] = target: T1, 5-hydroxytryptamine receptor 1F (Mus musculus, UniProt Q02284)
T1 sequence (Q02284 whole entry): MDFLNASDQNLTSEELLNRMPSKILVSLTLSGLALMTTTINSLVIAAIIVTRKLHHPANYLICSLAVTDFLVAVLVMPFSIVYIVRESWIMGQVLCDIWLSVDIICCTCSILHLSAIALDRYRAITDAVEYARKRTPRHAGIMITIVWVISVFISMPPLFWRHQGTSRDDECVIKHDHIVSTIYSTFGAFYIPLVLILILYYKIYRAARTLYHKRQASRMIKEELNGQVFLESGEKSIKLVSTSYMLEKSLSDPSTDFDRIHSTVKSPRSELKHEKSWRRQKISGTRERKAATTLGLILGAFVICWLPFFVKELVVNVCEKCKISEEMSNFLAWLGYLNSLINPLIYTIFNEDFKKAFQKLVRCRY

[4] = target: 5-hydroxytryptamine receptor 1D (Canis lupus familiaris, UniProt P11614)
[5] = target: 5-hydroxytryptamine receptor 1D (Rattus norvegicus, UniProt P28565)
[6] = target: T2, 5-hydroxytryptamine receptor 1F (Homo sapiens, UniProt P30939)
T2 sequence (P30939 whole entry): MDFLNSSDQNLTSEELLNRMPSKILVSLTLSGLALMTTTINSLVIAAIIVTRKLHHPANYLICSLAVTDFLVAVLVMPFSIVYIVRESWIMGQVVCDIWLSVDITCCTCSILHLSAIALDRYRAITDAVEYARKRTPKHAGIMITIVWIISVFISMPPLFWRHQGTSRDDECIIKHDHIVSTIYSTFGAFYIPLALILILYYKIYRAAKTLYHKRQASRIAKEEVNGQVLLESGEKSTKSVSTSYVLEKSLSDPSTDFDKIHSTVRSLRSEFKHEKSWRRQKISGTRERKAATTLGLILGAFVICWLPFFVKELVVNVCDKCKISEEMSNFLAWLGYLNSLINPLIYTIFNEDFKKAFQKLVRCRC

[7] = target: 5-hydroxytryptamine receptor 1D (Homo sapiens, UniProt P28221)
[8] = target: 5-hydroxytryptamine receptor 1E (Homo sapiens, UniProt P28566)
[9] = target: T3, 5-hydroxytryptamine receptor 1F (Rattus norvegicus, UniProt P30940)
T3 sequence (P30940 whole entry): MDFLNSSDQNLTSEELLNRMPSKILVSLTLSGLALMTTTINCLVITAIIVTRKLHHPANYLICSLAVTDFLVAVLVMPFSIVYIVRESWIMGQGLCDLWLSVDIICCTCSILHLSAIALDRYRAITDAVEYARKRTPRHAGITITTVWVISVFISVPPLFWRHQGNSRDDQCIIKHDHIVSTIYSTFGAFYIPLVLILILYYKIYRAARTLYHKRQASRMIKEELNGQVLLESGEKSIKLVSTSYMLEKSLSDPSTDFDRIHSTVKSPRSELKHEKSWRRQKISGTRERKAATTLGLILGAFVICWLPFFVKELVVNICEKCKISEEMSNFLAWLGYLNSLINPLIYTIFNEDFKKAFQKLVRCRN

[10] = target: 5-hydroxytryptamine receptor 2B (Rattus norvegicus, UniProt P30994)
[11] = target: 5-hydroxytryptamine receptor 1B (Rattus norvegicus, UniProt P28564)
[12] = target: 5-hydroxytryptamine receptor 1B (Mus musculus, UniProt P28334)
[13] = target: T4, 5-hydroxytryptamine receptor 3A (Mus musculus, UniProt P23979)
T4 sequence (P23979 whole entry): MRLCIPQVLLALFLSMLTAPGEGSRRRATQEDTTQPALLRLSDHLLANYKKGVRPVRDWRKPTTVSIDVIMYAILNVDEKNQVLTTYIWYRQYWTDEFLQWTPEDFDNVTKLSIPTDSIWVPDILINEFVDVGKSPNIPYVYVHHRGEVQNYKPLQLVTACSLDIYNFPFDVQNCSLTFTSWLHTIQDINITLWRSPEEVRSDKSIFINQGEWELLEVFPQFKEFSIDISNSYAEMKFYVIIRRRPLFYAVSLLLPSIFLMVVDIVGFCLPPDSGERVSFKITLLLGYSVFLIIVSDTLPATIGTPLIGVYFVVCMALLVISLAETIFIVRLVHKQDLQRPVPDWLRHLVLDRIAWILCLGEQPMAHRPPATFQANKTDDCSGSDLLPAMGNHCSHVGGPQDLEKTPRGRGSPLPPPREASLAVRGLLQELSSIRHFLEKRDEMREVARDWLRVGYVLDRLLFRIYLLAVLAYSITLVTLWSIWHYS

[14] = target: 5-hydroxytryptamine receptor 5A (Mus musculus, UniProt P30966)
[15] = target: 5-hydroxytryptamine receptor 2B (Mus musculus, UniProt Q02152)
Chain of 5-hydroxytryptamine receptor 2B (Mus musculus, UniProt Q02152) (Q02152 whole entry): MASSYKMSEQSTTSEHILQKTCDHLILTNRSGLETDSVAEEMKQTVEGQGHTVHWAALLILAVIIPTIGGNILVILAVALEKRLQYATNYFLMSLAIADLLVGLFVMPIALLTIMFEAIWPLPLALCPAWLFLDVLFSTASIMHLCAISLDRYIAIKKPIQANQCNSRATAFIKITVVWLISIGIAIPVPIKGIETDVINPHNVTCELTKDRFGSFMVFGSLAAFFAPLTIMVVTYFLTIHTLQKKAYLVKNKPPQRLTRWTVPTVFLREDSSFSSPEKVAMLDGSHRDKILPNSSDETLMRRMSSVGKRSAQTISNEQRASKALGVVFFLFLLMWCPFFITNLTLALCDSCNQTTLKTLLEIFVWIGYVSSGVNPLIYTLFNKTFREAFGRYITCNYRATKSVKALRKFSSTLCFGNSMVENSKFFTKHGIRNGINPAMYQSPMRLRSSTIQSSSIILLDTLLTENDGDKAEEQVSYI

Chain of 5-hydroxytryptamine receptor 7 (P32304 whole entry): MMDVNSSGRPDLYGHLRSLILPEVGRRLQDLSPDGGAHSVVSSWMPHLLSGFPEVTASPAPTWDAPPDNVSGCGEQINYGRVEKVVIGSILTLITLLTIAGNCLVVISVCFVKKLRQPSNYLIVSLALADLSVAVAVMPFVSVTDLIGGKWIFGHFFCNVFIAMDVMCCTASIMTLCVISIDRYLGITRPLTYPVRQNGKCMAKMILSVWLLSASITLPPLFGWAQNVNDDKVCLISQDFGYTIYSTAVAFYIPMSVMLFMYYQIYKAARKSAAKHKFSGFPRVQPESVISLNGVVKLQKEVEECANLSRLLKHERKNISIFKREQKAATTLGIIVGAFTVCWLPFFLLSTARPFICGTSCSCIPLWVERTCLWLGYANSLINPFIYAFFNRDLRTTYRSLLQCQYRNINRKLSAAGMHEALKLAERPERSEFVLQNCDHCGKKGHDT
Chain of 5-hydroxytryptamine receptor 1E (P28566 whole entry): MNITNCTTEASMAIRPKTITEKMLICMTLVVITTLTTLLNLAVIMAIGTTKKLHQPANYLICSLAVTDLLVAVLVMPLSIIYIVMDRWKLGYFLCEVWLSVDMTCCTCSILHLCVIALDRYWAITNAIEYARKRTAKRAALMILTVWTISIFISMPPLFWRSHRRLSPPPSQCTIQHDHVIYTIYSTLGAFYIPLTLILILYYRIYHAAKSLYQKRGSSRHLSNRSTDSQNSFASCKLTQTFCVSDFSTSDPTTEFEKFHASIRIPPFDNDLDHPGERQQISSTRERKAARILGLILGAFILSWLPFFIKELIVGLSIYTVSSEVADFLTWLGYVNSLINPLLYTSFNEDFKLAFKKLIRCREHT
Chain of 5-hydroxytryptamine receptor 1D (Rattus norvegicus, UniProt P28565) (P28565 whole entry): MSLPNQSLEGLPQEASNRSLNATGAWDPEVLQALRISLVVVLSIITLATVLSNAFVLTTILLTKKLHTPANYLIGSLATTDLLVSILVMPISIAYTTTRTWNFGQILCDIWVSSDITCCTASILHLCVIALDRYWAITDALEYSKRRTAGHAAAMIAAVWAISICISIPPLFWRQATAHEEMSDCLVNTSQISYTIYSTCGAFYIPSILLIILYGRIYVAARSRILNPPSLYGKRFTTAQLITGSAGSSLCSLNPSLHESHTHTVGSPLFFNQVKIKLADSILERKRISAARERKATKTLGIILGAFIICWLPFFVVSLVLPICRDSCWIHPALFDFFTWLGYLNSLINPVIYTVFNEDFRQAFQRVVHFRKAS
Chain of 5-hydroxytryptamine receptor 1D (Canis lupus familiaris, UniProt P11614) (P11614 whole entry): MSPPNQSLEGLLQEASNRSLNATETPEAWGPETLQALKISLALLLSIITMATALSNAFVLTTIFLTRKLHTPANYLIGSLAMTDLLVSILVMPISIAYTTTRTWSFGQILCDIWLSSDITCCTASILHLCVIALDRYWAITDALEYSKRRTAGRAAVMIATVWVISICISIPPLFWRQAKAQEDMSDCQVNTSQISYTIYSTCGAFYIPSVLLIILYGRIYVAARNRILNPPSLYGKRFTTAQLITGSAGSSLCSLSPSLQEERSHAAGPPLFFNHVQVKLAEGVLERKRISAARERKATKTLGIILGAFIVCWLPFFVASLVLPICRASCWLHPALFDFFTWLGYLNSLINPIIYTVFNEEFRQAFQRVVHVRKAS
Chain of 5-hydroxytryptamine receptor 2B (Rattus norvegicus, UniProt P30994) (P30994 whole entry): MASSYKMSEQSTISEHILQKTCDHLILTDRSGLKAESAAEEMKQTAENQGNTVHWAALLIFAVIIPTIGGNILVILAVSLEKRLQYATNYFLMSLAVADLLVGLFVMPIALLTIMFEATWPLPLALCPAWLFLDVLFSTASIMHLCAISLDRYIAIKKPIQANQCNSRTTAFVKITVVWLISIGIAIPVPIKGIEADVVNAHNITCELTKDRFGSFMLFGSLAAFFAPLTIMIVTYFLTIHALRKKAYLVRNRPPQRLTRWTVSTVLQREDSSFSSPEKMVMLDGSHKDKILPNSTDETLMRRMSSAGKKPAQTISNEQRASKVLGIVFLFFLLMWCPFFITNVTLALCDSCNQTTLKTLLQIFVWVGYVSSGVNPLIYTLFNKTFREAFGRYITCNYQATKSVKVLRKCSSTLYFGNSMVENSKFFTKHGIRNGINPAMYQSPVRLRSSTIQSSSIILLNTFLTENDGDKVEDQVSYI
Chain of 5-hydroxytryptamine receptor 1B (Homo sapiens, UniProt P28222) (P28222 whole entry): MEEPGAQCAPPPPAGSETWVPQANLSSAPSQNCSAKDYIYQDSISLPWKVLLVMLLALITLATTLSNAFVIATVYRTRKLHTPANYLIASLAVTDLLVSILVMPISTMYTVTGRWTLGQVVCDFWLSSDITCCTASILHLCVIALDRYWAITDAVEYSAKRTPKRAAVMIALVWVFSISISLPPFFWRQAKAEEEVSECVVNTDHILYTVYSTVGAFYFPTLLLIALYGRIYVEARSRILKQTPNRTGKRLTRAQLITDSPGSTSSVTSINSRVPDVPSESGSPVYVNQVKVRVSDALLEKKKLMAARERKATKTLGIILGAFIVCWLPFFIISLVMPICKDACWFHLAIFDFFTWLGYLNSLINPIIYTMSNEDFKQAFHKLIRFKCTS
Chain of 5-hydroxytryptamine receptor 1D (Homo sapiens, UniProt P28221) (P28221 whole entry): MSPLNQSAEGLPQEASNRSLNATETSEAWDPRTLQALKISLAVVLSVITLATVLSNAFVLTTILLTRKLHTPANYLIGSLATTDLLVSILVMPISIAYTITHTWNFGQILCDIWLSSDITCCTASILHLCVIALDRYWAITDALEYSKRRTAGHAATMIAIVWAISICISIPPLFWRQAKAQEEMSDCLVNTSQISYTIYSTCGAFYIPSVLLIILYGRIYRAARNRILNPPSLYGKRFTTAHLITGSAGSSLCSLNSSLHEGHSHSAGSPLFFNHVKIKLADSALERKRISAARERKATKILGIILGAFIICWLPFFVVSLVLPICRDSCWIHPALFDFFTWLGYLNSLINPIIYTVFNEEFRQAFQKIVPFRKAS
Chain of 5-hydroxytryptamine receptor 5A (P30966 whole entry): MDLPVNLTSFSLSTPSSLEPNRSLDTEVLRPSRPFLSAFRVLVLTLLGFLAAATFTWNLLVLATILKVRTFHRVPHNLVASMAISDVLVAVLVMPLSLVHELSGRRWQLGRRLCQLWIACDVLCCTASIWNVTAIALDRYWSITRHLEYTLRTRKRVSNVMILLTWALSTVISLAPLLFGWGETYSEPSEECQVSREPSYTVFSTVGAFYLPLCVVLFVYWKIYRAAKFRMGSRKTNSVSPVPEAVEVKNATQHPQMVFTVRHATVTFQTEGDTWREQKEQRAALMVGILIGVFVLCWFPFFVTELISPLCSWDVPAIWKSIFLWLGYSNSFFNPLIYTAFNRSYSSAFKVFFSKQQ
Chain of 5-hydroxytryptamine receptor 1B (Rattus norvegicus, UniProt P28564) (P28564 whole entry): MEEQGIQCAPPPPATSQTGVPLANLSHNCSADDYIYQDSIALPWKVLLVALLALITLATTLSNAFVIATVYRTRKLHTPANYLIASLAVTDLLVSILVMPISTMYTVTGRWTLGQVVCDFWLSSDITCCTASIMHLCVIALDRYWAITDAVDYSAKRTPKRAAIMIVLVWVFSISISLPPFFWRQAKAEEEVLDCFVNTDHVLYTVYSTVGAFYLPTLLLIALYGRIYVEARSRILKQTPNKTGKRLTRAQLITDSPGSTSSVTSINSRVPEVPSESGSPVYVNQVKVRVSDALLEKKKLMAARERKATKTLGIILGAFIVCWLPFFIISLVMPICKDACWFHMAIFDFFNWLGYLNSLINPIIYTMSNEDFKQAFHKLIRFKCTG
Chain of 5-hydroxytryptamine receptor 1B (Mus musculus, UniProt P28334) (P28334 whole entry): as the sequence (P28564 whole entry) above, with T15A, A23T, D33G, D152E, V192M, V270A, E272D, T385A counted along it

## CN1C[C@@H](NS(=O)(=O)N(C)C)C[C@@H]2c3cccc4c3c(cn4C)C[C@H]21 [MESULERGINE]
[1]
  Ki: 1290 nM and 631 nM
[2]
  Ki: 25.1 nM

## CN(C)CCc1c[nH]c2ccc(O)cc12 [3-[2-(dimethylamino)ethyl]indol-5-ol]
[3]
  Ki: 31.6 nM

## CCC(=O)c1ccc(N)cc1 [CAS_6270]
[4]
  Ki: 34.7 nM

## CN1CCN2c3ccccc3Cc3ccccc3[C@H]2C1 [MIANSERIN (+)]
[2]
  Ki: 100 nM
[5]
  Ki: 30.2 nM
[6]
  Ki: 12.6 nM
[3]
  Ki: 100 nM

## CN1C[C@H](CNC(=O)OCc2ccccc2)C[C@@H]2c3cccc4c3c(cn4C)C[C@H]21 [METERGOLINE]
[1]
  Ki: 5.24 nM and 36.3 nM
[7]
  Ki: 0.6 nM
[8]
  Ki: 1120 nM and 776 nM
[2]
  Ki: 31.6 nM
[5]
  Ki: 0.77 nM
[9]
  Ki: 513 nM

## Clc1cccc(N2CCNCC2)c1 [mCPP]
[1]
  Ki: 363 nM and 501 nM
[10]
  Ki: 26.9 nM

## COc1ccc2[nH]cc(C3=CCNCC3)c2c1 [5-Methoxy-3-(1,2,3,6-tetrahydro-pyridin-4-yl)-1H-indole(RU-24969)]
[11]
  Ki: 1.58 nM and 2.57 nM and 0.36 nM
[12]
  Ki: 10 nM
[4]
  Ki: 63.1 nM
[5]
  Ki: 46.8 nM
[3]
  Ki: 158 nM

## CN1CCc2cc(Cl)c(O)cc2[C@@H](c2ccccc2)C1 [SCH 23390,R(+)]
[10]
  Ki: 83.2 nM

## CN1CCC(=C2c3ccccc3CCc3sccc32)CC1 [NSC_27400]
[10]
  Ki: 38.9 nM

## CCCN(CCC)CCc1c[nH]c2ccc(C(N)=O)cc12 [NN-DIPROP-5-CT]
[1]
  Ki: 41.7 nM
[7]
  Ki: 12.9 nM

## COC(=O)[C@@H]1[C@H]2C[C@H]3c4[nH]c5ccccc5c4CCN3C[C@@H]2CC[C@@H]1O [yohimbic acid methyl ester]
[7]
  Ki: 15.8 nM and 47.9 nM
[12]
  Ki: > 10000 nM
[4]
  Ki: 5.24 nM
[5]
  Ki: 30.9 nM
[3]
  Ki: 63.1 nM
[9]
  Ki: 562 nM
[10]
  Ki: 58.9 nM and 35.5 nM and 107 nM and 53.7 nM

## CN1CC(C(=O)N[C@]2(C)O[C@@]3(O)C4CCCN4C(=O)[C@H](Cc4ccccc4)N3C2=O)CC2c3cccc4[nH]cc(c34)CC21 (stereo partly drawn) [7-Methyl-4,6,6a,7,8,9,10,10a-octahydro-indolo[4,3-fg]quinoline-9-carboxylic acid ((2R,5S,10bS)-5-benzyl-10b-hydroxy-2-methyl-3,6-dioxo-octahydro-oxazolo[3,2-a]pyrrolo[2,1-c]pyrazin-2-yl)-amide]
[5]
  Ki: 0.06 nM
[10]
  Ki: 145 nM

## c1ccc2c(N3CCNCC3)cccc2c1
[1]
  Ki: 12 nM
[7]
  Ki: 7.41 nM
[11]
  Ki: 39.8 nM
[6]
  Ki: 53.7 nM

## CCN(CC)C(=O)[C@@H]1C=C2c3cccc4[nH]cc(c34)C[C@H]2N(C)C1 [(4R,7R)-N,N-diethyl-6-methyl-6,11-diazatetracyclo[7.6.1.0^{2,7}.0^{12,16}]hexadeca-1(16),2,9,12,14-pentaene-4-carboxamide]
[4]
  Ki: 12.6 nM

## CCN(CC)C(=O)[C@@H]1C=C2c3cccc4[nH]c(Br)c(c34)C[C@H]2N(C)C1 [LSD,2-Bromo]
[2]
  Ki: 10 nM
[10]
  Ki: 12.6 nM

## CN(C)CCCN1c2ccccc2Sc2ccc(Cl)cc21 [[3-(2-Chloro-phenothiazin-10-yl)-propyl]-dimethyl-amine(Chlorpromazine)]
[2]
  Ki: 5010 nM

## CC(C)(C)NCC(O)COc1cccc2[nH]c(C#N)cc12 (stereo not given) [NSC_155346]
[1]
  Ki: 21.4 nM
[11]
  Ki: 0.26 nM
[12]
  Ki: 2.51 nM
[5]
  Ki: 36.3 nM

## CC(C)(C)[C@]1(O)CCN2C[C@H]3c4ccccc4CCc4cccc(c43)[C@@H]2C1
[2]
  Ki: 31.6 nM
[6]
  Ki: 3890 nM

## COc1cc2c3cc1Oc1cc(ccc1O)C[C@@H]1c4c(cc(OC)c(O)c4Oc4ccc(cc4)C[C@@H]3N(C)CC2)CC[N+]1(C)C [Tubocurarine,d]
[13]
  Ki: 8.7 nM

## Cn1cc(CCN)c2cc(O)ccc21 [5-HT,omega-N-Me]
[10]
  Ki: 10.5 nM

## CN1CCN(c2nc3cc(C(F)(F)F)ccc3n3cccc23)CC1 [CAS_109028-10-6]
[5]
  Ki: 4.89 nM

## CCCN(CCC)C1CCc2cccc(O)c2C1 (stereo not given)
[2]
  Ki: 251 nM
[14]
  Ki: 1580 nM

## CC(C)C[C@H]1C(=O)N2CCC[C@H]2[C@]2(O)O[C@](NC(=O)[C@@H]3C=C4c5cccc6[nH]c(Br)c(c56)C[C@H]4N(C)C3)(C(C)C)C(=O)N12 [Bromocriptine+ (GTP+)]
[2]
  Ki: 126 nM

## CC(C)n1cc2c3c(cccc31)C1CC(C(=O)NC3CCCCC3)CN(C)C1C2 (stereo not given) [NSC_60740]
[10]
  Ki: 10.7 nM

## CNS(=O)(=O)Cc1ccc2[nH]cc(CCN(C)C)c2c1 [Sumax]
[8]
  Ki: 2340 nM and 2090 nM
[3]
  Ki: 79.4 nM
[14]
  Ki: > 10000 nM

## O=C(CCCN1CCC2(CC1)C(=O)NCN2c1ccccc1)c1ccc(F)cc1 [8-[4-(4-fluorophenyl)-4-oxidanylidene-butyl]-1-phenyl-1,3,8-triazaspiro[4.5]decan-4-one]
[15]
  Ki: 50.1 nM
[2]
  Ki: 63.1 nM
[4]
  Ki: 1000 nM
[5]
  Ki: 61.6 nM
[6]
  Ki: 3.98 nM

## CSc1ccc2c(c1)C(N1CCN(C)CC1)Cc1ccccc1S2 (stereo not given) [methanesulfonic acid;1-methyl-4-(3-methylsulfanyl-5,6-dihydrobenzo[b][1]benzothiepin-5-yl)piperazine]
[8]
  Ki: 209 nM and 120 nM
[11]
  Ki: 12.9 nM and 10.5 nM
[5]
  Ki: 0.58 nM
[9]
  Ki: 1000 nM
[14]
  Ki: 126 nM

## Cc1cc(C(C)(C)C)c(O)c(C)c1CC1=NCCN1 [SMR000059324]
[11]
  Ki: 2.51 nM and 0.81 nM
[5]
  Ki: 1.28 nM

## CC(C)NCC(O)COc1cccc2[nH]ccc12 (stereo not given) [LB-46]
[12]
  Ki: 63.1 nM

## CN1C2CCC1CC(OC(=O)c1c[nH]c3ccccc13)C2 (stereo not given)
[13]
  Ki: 1.99 nM

## NCCc1c[nH]c2ccccc12 [1H-indole-3-ethanamine]
[15]
  Ki: 200 nM
[10]
  Ki: 200 nM

## FC(F)(F)c1cccc(N2CCNCC2)c1 [TFMPP]
[5]
  Ki: 58.9 nM
[3]
  Ki: 794 nM
[10]
  Ki: 85.1 nM

## NCCc1c[nH]c2ccc(Br)cc12
[10]
  Ki: 38.9 nM

## Cc1[nH]c2ccc(O)cc2c1CCN
[1]
  Ki: 851 nM and 513 nM
[15]
  Ki: 6610 nM
[10]
  Ki: 316 nM

## COc1cc(CC(C)N)c(OC)cc1I (stereo not given) [[125I]2,5-dimethoxy-4-iodoamphetamine]
[6]
  Ki: 2510 nM
[10]
  Ki: 27.5 nM

## CN1C2CCC1CC(OC(=O)c1cc(Cl)cc(Cl)c1)C2 (stereo not given) [MDL 72222]
[13]
  Ki: 87.1 nM

## COc1ccc2[nH]cc(CCN(C)C)c2c1 [3-(2-DIMETHYLAMINOETHYL)-5-METHOXYINDOLE]
[4]
  Ki: 5.12 nM
